# Test results from article PMC12606464, “Investigating NFE2L1 activators for targeted protein aggregate clearance: a follow-up study” (RSC Medicinal Chemistry, 2025).
# System: C. elegans wild-type (N2)
# Assay: Acute juglone/paraquat-induced oxidative stress resistance in C. elegans N2
# Format: in vivo, Caenorhabditis elegans
# Conditions: for # deaths/events: over 12 hours; for Median survival: Fig. 5C
# Method: Fig. 5 RUN-89 prevents protein aggregation and increases stress resistance in C. elegans. (A) The AM140 strain expressing aggregation-prone Q35-YFP was treated with 50 μM RUN-89 or the vehicle for 6 days, followed by microscopy analysis. Overall, 959 Q35-YFP foci (DMSO = 517; RUN-89 = 442) were identified in 102 animals (DMSO: N = 3 populations, n = 55 animals in total; RUN-89: N = 3 populations, n = 47 animals in total). The two dashed horizontal lines indicate the interquartile range, and the thick horizontal line represents the median. The Kolmogorov–Smirnov test verified a significant reduction of surface and integrated optical density of foci after RUN-89 treatment. (B) Representative images of two animals per treatment condition. Images were taken on the same day, using identical settings for the instruments used. (C) Protective effect of RUN-89 against juglone and paraquat-induced stress. […] The mortality was monitored hourly over a 12 hour period. […] For juglone treatment, 629 animals were examined (DMSO: N = 2 populations of 167 and 152 animals, n = 319 animals in total; RUN-89: N = 2 populations of 141 and 169 animals, n = 310 animals in total). Results were analyzed using the Kaplan–Meier method and are presented as survival percentages with standard errors. The survival curves were compared using the Gehan–Breslow–Wilcoxon test (juglone) and log-rank test (paraquat). (A and C) Detailed results of the analysis are shown in SI Tables S10 and S11. *p < 0.05, ****p < 0.001.
# Next, we examined whether the compound RUN-89 protects animals from oxidative damage/death induced by increased reactive oxygen species (ROS) levels. In worms, the herbicide paraquat and the naturally occurring quinone compound juglone are well-known for inducing oxidative stress.[84] In this experiment, the wild-type (N2) strain was used, and RUN-89 was administered at a concentration of 50 μM for 24 hours. Following this pretreatment, approximately 130 animals were transferred to plates containing either 180 μM juglone or 200 μM paraquat. Worm mortality was monitored over a 12-hour period. […]
# 2.13 C. elegans strains and maintenance
# The animals were kept at 20 °C according to standard cultivation conditions (Biron & […]
# (mgIs72 [rpt-3p::GFP + dpy-5(+)] II) of Caenorhabditis elegans strains and E. coli strain OP50 were obtained from the Caenorhabditis Genetic Centre (CGC, University of Minnesota , http://cbs.umn.edu/cgc/home). […]
# Kolmogorov-Smirnov test performed in GraphPad Prism (v 10.6.1).
# 2.15 Acute juglone/paraquat-induced oxidative stress resistance in C.
# Eggs of the wild-type strain (N2) were placed in liquid S-basal medium supplemented with E. coli OP50 as a food source. Upon reaching the young adult stage, they were exposed to either 50 µM RUN 89 or an equivalent volume of solvent (control group) and incubated at 20 °C for 24 hours. Approximately 130 animals were placed on plates containing either 180 µM juglone or 200 µM paraquat to induce severe oxidative stress .(5, 6) The number of dead animals was recorded each hour throughout the 12-hour experiment. The data were then analyzed using Kaplan-Meier survival analysis, and the results were examined through this method. Su rvival curves were compared via the Gehan-Breslow-Wilcoxon test or the log-rank (Mantel-Cox) test in GraphPad Prism software ( v 10.6.1).
# [1] = juglon stress, B = juglon + DMSO, C = juglon + RUN-89
# [2] = paraquat stress, B = paraquat + DMSO, C = paraquat + RUN-89
smiles,measurement,setting,value
COc1ccc(/C=C2\CC(NC(=O)C3CCCC3)C/C(=C\c3ccc(OC)c(OC)c3)C2=O)cc1OC (stereo not drawn) [RUN-89],Protection against juglone-induced lethal oxidative stress,"N2, 50 μM for 24 h, then 180 μM juglone, mortality over 12 h",significant protective effect
same,Protection against paraquat-induced lethal oxidative stress,"N2, 50 μM for 24 h, then 200 μM paraquat, mortality over 12 h",significant protective effect
same,"Ratio of median survival (reciprocal), juglon + RUN-89 / juglon + DMSO",juglon stress,1.25
same,"Ratio of median survival, juglon + DMSO / juglon + RUN-89",juglon stress,0.8
same,# deaths/events,"juglon stress, 306 subjects at 0 h",305
same,# at risk,"juglon stress, 1 hour, 306 at 0 h",306
same,# at risk,"juglon stress, 2 hours, 306 at 0 h",289
same,# at risk,"juglon stress, 3 hours, 306 at 0 h",235
same,# at risk,"juglon stress, 4 hours, 306 at 0 h",190
same,# at risk,"juglon stress, 5 hours, 306 at 0 h",164
same,# at risk,"juglon stress, 6 hours, 306 at 0 h",124
same,# at risk,"juglon stress, 7 hours, 306 at 0 h",105
same,# at risk,"juglon stress, 8 hours, 306 at 0 h",82
same,# at risk,"juglon stress, 9 hours, 306 at 0 h",37
same,# at risk,"juglon stress, 10 hours, 306 at 0 h",13
same,# at risk,"juglon stress, 11 hours, 306 at 0 h",7
same,# at risk,"juglon stress, 12 hours, 306 at 0 h",1
same,Median survival,"juglon stress, juglon + DMSO median 4",5 h
same,Hazard Ratio (Mantel-Haenszel) B/C,[1],1.206
same,Hazard Ratio (Mantel-Haenszel) C/B,[1],0.8295
same,Hazard Ratio (logrank) B/C,[1],1.141
same,Hazard Ratio (logrank) C/B,[1],0.8761
same,"Ratio of median survival (reciprocal), paraquat + RUN-89 / paraquat + DMSO",paraquat stress,1.4
same,"Ratio of median survival, paraquat + DMSO / paraquat + RUN-89",paraquat stress,0.7143
same,# deaths/events,"paraquat stress, 274 subjects at 0 h",273
same,# at risk,"paraquat stress, 1 hour, 274 at 0 h",274
same,# at risk,"paraquat stress, 2 hours, 274 at 0 h",263
same,# at risk,"paraquat stress, 3 hours, 274 at 0 h",241
same,# at risk,"paraquat stress, 4 hours, 274 at 0 h",216
same,# at risk,"paraquat stress, 5 hours, 274 at 0 h",209
same,# at risk,"paraquat stress, 6 hours, 274 at 0 h",167
same,# at risk,"paraquat stress, 7 hours, 274 at 0 h",148
same,# at risk,"paraquat stress, 8 hours, 274 at 0 h",130
same,# at risk,"paraquat stress, 9 hours, 274 at 0 h",109
same,# at risk,"paraquat stress, 10 hours, 274 at 0 h",84
same,# at risk,"paraquat stress, 11 hours, 274 at 0 h",44
same,# at risk,"paraquat stress, 12 hours, 274 at 0 h",11
same,Median survival,"paraquat stress, paraquat + DMSO median 5",7 h
same,Hazard Ratio (Mantel-Haenszel) B/C,[2],1.524
same,Hazard Ratio (Mantel-Haenszel) C/B,[2],0.6563
same,Hazard Ratio (logrank) B/C,[2],1.357
same,Hazard Ratio (logrank) C/B,[2],0.7368
